Results from article PMC10428205, “Cytotoxicity of Ruthenium(II) Arene Complexes Containing Functionalized Ferrocenyl β-Diketonate Ligands” (Organometallics, 2023).
Where two headings read alike, the source gives them in different places.

Legend:
MIA PaCa-2 [1] = assay type: cell-based
Experimental: (§1) LogP = Log ( [C]final ) Eqn1
(§2) 96 h Chemosensitivity Studies
(§3) In vitro chemosensitivity tests were performed at both the University of Huddersfield and the Institute of Cancer Therapeutics, Bradford, in a sterile Class II Biological Safety Cabinet fitted with a HEPA filtered laminar airflow.
Cellular assays were conducted against human pancreatic carcinoma (MIA PaCa-2), human colorectal carcinoma p53-wildtype (HCT116 p53+/+), and human non-cancerous epithelial retinal cells (ARPE-19). […]
were obtained from the American Type Culture Collection and provided by the University of Huddersfield. All cell lines were routinely maintained as monolayer cultures in appropriate complete medium and maintained in either […]
T-25 or T-75 flasks at 37 °C and 5% CO2.
10% foetal calf serum. All medium was supplemented with sodium pyruvate (1 mM) and L-glutamine (2 mM), and prior to chemosensitivity studies, cell monolayers were passaged using Trypsin-EDTA and diluted to a […]
cells/mL cell suspension was added to each well and incubated for 24 h at 37 °C and 5% CO2. After 24 h, 100 mL of drug dilutions (fresh 100 mM stock solutions in DMSO) in media were added to the plates and then incubated for a further 96 h at 37°C and 5% CO2 (48 h + 48 h recovery period were used for the shorter exposures with MIA PaCa-2 cells only). After 96 h, 20 mL MTT (3-(4,5-dimethylthiazol-2-yl)-2,5-diphenyltetrazolium bromide, 5 mg/mL) was added to each well and incubated for 3 h at 37 °C and 5% CO2. All solutions were then removed from the 96-well plates via pipette and […] of DMSO added to each well to dissolve the purple formazan […]
FC spectrophotometer microplate reader. Using the blank and 100% cell controls, the % cell viability was determined [(abs. of compound containing wells – abs. media wells)/(abs. 100% cell suspension well control)] and from this the % cell death (100%- % cell viability) was calculated. On a logarithmic scale, the percentage cell death was plotted against the concentration of compound, and from this the half maximal inhibitory concentration (IC50) value was determined. Each of the experiments were performed in triplicate with mean values being stated as the IC50 ± Standard Deviation (SD). […]

MIA PaCa-2 [2] = experiment: 24 and 48 h chemosensitivity (MTT, with recovery period); assay type: cell-based, human
Experimental: as §1, §2, §3
Cellular assays were conducted against human pancreatic carcinoma (MIA PaCa-2), human colorectal carcinoma p53-wildtype (HCT116 p53+/+), and human non-cancerous epithelial retinal cells (ARPE-19). The ARPE-19 cells were obtained from the American Type Culture Collection and provided by the University of Huddersfield. All cell lines were routinely maintained as monolayer cultures in appropriate complete medium and maintained in either T-25 or T-75 flasks at 37 °C and 5% CO2. MIA PaCa-2 and ARPE-19 cells were cultured in high glucose DMEM-F12 medium containing 10% foetal calf serum, and HCT116 p53+/+ was cultured in RPMI 1640 supplemented with 10% foetal calf serum. All medium was supplemented with sodium pyruvate (1 mM) and L-glutamine (2 mM), and prior to chemosensitivity studies, cell monolayers were passaged using Trypsin-EDTA and diluted to a concentration of 1 x 10^4 cells/mL. All assays were conducted using 96-well plates, in which […] of the 1 x 10^4 cells/mL cell suspension was added to each well and incubated for 24 h at 37 °C and 5% CO2. After 24 h, 100 mL of drug dilutions (fresh 100 mM stock solutions in DMSO) in media were added to the plates and then incubated for a further 96 h at 37°C and 5% CO2 (48 h + 48 h recovery period were used for the shorter exposures with MIA PaCa-2 cells only). After 96 h, 20 mL MTT (3-(4,5-dimethylthiazol-2-yl)-2,5-diphenyltetrazolium bromide, 5 mg/mL) was added to each well and incubated for 3 h at 37 °C and 5% CO2. All solutions were then removed from the 96-well plates via pipette and […] of DMSO added to each well to dissolve the purple formazan crystals. After mixing well, the absorbance of each well was measured at 540 nm using a ThermoFisher Multiskan FC spectrophotometer microplate reader. Using the blank and 100% cell controls, the % cell viability was determined [(abs. of compound containing wells – abs. media wells)/(abs. 100% cell suspension well control)] and from this the % cell death (100%- % cell viability) was calculated. On a logarithmic scale, the percentage cell death was plotted against the concentration of compound, and from this the half maximal inhibitory concentration (IC50) value was determined. Each of the experiments were performed in triplicate with mean values being stated as the IC50 ± Standard Deviation (SD).
24 and 48 h Chemosensitivity Studies
The same experimental protocol described for the 96 h MTT assay was used, and the MIA PaCa-2 cells were incubated for either 24 or 48 h, with a 72 or 48 h recovery period respectively. […]
All assays were conducted in triplicate.

Cyclic voltammetry = details: for E0′ (Fc*/Fc*+): 0.1 M TBAPF6 in acetonitrile, Fc/Fc+ = 0.40 V internal standard; for E0′ (Fc*/Fc*+) / EP Red: vs SCE; for EP Red: irreversible reduction; for E0’ (Fc*/Fc*+) at 0.05 V/s: scan speed 0.05 V/s; for E0’ (Fc*/Fc*+) at 0.10 V/s: scan speed 0.10 V/s; for E0’ (Fc*/Fc*+) at 0.25 V/s: scan speed 0.25 V/s
[3] = 96 h MTT, normoxic, ± SD, read-out: IC50 against MIA PaCa-2
[4] = MIA PaCa-2, 24 h exposure + 72 h recovery, read-out: IC50 values ± SD, 24 h
[5] = MIA PaCa-2, 48 h exposure + 48 h recovery, read-out: IC50 values ± SD, 48 h

| SMILES | Selectivity index (SI), IC50 ARPE-19 / IC50 MIA PaCa-2 (MIA PaCa-2 [1]; 96 h, * = minimum value as at least one IC50 > 100) | IC50 (MIA PaCa-2 [1]; [3]) [µM] | IC50 (MIA PaCa-2 [1]; MIA PaCa-2, 96 h, read-out: IC50 values ± SD (Table S14)) [µM] | IC50 (MIA PaCa-2 [2]; [4]) [µM] | IC50 (MIA PaCa-2 [2]; [5]) [µM] | E0′ (Fc*/Fc*+) (Cyclic voltammetry) [V] | EP Red (Cyclic voltammetry) | E0’ (Fc*/Fc*+) at 0.05 V/s (Cyclic voltammetry) [V] | E0’ (Fc*/Fc*+) at 0.10 V/s (Cyclic voltammetry) [V] | E0’ (Fc*/Fc*+) at 0.25 V/s (Cyclic voltammetry) [V] |
| --- | --- | --- | --- | --- | --- | --- | --- | --- | --- | --- |
| [NH2][Pt]([NH2])([Cl])[Cl] [CDDP, cisplatin, reference compound] | 1.7 | 3.6 ± 0.7 | 3.6 ± 0.7 | > 100 | 76 ± 3 | – | – | – | – | – |
| CC(O)=CC(=O)[c-]1cccc1.[Fe+2].c1cc[cH-]c1 [Complex L1] | – | 59 ± 2 | – | 76 ± 3 | 61 ± 1 | 0.63 | –1.98 V | 0.63 | 0.62 | 0.63 |
| O=C(C=C(O)C(F)(F)F)[c-]1cccc1.[Fe+2].c1cc[cH-]c1 [Complex L7] | – | 17 ± 1 | – | > 100 | 20 ± 1 | 0.71 | –1.42 V | 0.71 | 0.71 | 0.71 |
| O=C(C=C(O)c1ccccc1)[c-]1cccc1.[Fe+2].c1cc[cH-]c1 [Complex L2] | – | 38.7 ± 0.8 | – | > 100 | 68 ± 3 | 0.63 | –1.73 V | 0.63 | 0.63 | 0.63 |
